Laboratory results reported in ChEMBL document CHEMBL1142296, “BACE1 inhibitors: optimization by replacing the P1' residue with non-acidic moiety” (Bioorg Med Chem Lett, 2008).

Key:
Beta-secretase 1 [1] = target: T1, Beta-secretase 1 (Homo sapiens, UniProt P56817); experiment: Inhibition of human recombinant BACE1
Beta-secretase 1 [2] = target: T1, Beta-secretase 1; experiment: Inhibition of human recombinant BACE1 at 2 uM
Beta-secretase 1 [3] = target: T1, Beta-secretase 1; experiment: Inhibition of human recombinant BACE1 at 0.2 uM

T1 sequence (P56817 whole entry): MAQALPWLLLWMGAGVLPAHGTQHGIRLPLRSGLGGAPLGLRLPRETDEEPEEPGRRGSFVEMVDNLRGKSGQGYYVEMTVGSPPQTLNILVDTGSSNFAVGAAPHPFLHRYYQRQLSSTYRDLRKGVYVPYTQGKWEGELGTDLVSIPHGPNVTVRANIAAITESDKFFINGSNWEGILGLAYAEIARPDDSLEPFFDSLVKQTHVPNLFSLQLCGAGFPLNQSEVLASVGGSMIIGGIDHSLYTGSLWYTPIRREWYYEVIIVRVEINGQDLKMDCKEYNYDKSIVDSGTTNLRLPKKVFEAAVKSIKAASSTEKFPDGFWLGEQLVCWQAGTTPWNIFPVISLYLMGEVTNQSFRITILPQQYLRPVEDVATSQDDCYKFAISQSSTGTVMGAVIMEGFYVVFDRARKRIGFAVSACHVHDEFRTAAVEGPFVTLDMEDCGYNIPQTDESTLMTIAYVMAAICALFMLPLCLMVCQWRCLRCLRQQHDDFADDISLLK

| SMILES | inhibition (Beta-secretase 1 [2]) [%] | inhibition (Beta-secretase 1 [3]) [%] | IC50 (Beta-secretase 1 [1]) [µM] |
| --- | --- | --- | --- |
| CC(C)C[C@H](NC(=O)[C@@H](NC(=O)[C@@H](N)CNC(=O)c1nnn[nH]1)C(C)C)C(=O)N[C@@H](Cc1ccccc1)[C@@H](O)C(=O)Nc1cc(Cl)cc(Cl)c1 | – | – | 0.014 |
| CC(C)C[C@H](NC(=O)[C@@H](NC(=O)[C@@H](N)CCC(=O)O)C(C)C)C(=O)N[C@@H](Cc1ccccc1)[C@@H](O)C(=O)Nc1ccccc1O | 60 | – | – |
| CC(C)C[C@H](NC(=O)[C@@H](NC(=O)[C@@H](N)CNC(=O)c1nn[nH]n1)C(C)C)C(=O)N[C@@H](Cc1ccccc1)[C@@H](O)C(=O)Nc1cccc([N+](=O)[O-])c1 | 96 | 70 | – |
| CC(C)C[C@H](NC(=O)[C@@H](NC(=O)[C@@H](N)CNC(=O)c1nn[nH]n1)C(C)C)C(=O)N[C@@H](Cc1ccccc1)[C@@H](O)C(=O)Nc1cc(Cl)cc(Cl)c1 | 99 | 84 | – |
| CC(C)C[C@H](NC(=O)[C@@H](NC(=O)[C@@H](N)CCC(=O)O)C(C)C)C(=O)N[C@@H](Cc1ccccc1)[C@@H](O)C(=O)Nc1ccccc1 | 53 | – | – |
| CC(C)C[C@H](NC(=O)[C@@H](NC(=O)[C@@H](N)CNC(=O)c1nn[nH]n1)C(C)C)C(=O)N[C@@H](Cc1ccccc1)[C@@H](O)C(=O)NS(=O)(=O)C(F)(F)F | 98 | 81 | – |
| Cc1nc(NC(=O)[C@H](O)[C@H](Cc2ccccc2)NC(=O)[C@H](CC(C)C)NC(=O)[C@@H](NC(=O)[C@@H](N)CCC(=O)O)C(C)C)sc1C(=O)O | 94 | – | – |
| CC(C)C[C@H](NC(=O)[C@@H](NC(=O)[C@@H](N)CNC(=O)c1nn[nH]n1)C(C)C)C(=O)N[C@@H](Cc1ccccc1)[C@@H](O)C(=O)Nc1cccc(OC(F)(F)F)c1 | 93 | 72 | – |
| CC(C)C[C@H](NC(=O)[C@@H](NC(=O)[C@@H](N)CNC(=O)c1nn[nH]n1)C(C)C)C(=O)N[C@@H](Cc1ccccc1)[C@@H](O)C(=O)Nc1cc(Br)cc(C(F)(F)F)c1 | 92 | 57 | – |
| CC(C)C[C@H](NC(=O)[C@@H](NC(=O)[C@@H](N)CNC(=O)c1nn[nH]n1)C(C)C)C(=O)N[C@@H](Cc1ccccc1)[C@@H](O)C(=O)Nc1cc([N+](=O)[O-])cc([N+](=O)[O-])c1 | 96 | 75 | – |
| CC(C)C[C@H](NC(=O)[C@@H](NC(=O)[C@@H](N)CCC(=O)O)C(C)C)C(=O)N[C@@H](Cc1ccccc1)[C@@H](O)C(=O)Nc1cccc([N+](=O)[O-])c1 | 71 | – | – |
| CC(C)C[C@H](NC(=O)[C@@H](NC(=O)[C@@H](N)CCC(=O)O)C(C)C)C(=O)N[C@@H](Cc1ccccc1)[C@@H](O)C(=O)Nc1cccc(C(=O)NS(=O)(=O)C(F)(F)F)c1 | 86 | – | – |
| CC(C)C[C@H](NC(=O)[C@@H](NC(=O)[C@@H](N)CNC(=O)c1nnn[nH]1)C(C)C)C(=O)N[C@@H](Cc1ccccc1)[C@@H](O)C(=O)NS(=O)(=O)C(F)(F)F | – | – | 0.0299 |
| CCOC(=O)c1sc(NC(=O)[C@H](O)[C@H](Cc2ccccc2)NC(=O)[C@H](CC(C)C)NC(=O)[C@@H](NC(=O)[C@@H](N)CCC(=O)O)C(C)C)nc1C | 66 | – | – |

The next lines start with results.

| inhibition (Beta-secretase 1 [2]) [%] | inhibition (Beta-secretase 1 [3]) [%] | SMILES | IC50 (Beta-secretase 1 [1]) [µM] |
| --- | --- | --- | --- |
| 80 | – | CC(C)C[C@H](NC(=O)[C@@H](NC(=O)[C@@H](N)CCC(=O)O)C(C)C)C(=O)N[C@@H](Cc1ccccc1)[C@@H](O)C(=O)Nc1cc(Cl)c(O)c(Cl)c1 | – |
| 74 | – | CC(C)C[C@H](NC(=O)[C@@H](NC(=O)[C@@H](N)CCC(=O)O)C(C)C)C(=O)N[C@@H](Cc1ccccc1)[C@@H](O)C(=O)Nc1cc(C(F)(F)F)cc(C(F)(F)F)c1 | – |
| 54 | – | CC(C)C[C@H](NC(=O)[C@@H](NC(=O)[C@@H](N)CCC(=O)O)C(C)C)C(=O)N[C@@H](Cc1ccccc1)[C@@H](O)C(=O)Nc1cccc(O)c1 | – |
| 60 | – | CC(C)C[C@H](NC(=O)[C@@H](NC(=O)[C@@H](N)CCC(=O)O)C(C)C)C(=O)N[C@@H](Cc1ccccc1)[C@@H](O)C(=O)Nc1cc([N+](=O)[O-])cc([N+](=O)[O-])c1 | – |
| 78 | – | CC(C)C[C@H](NC(=O)[C@@H](NC(=O)[C@@H](N)CCC(=O)O)C(C)C)C(=O)N[C@@H](Cc1ccccc1)[C@@H](O)C(=O)Nc1cc(Cl)cc(Cl)c1 | – |
| 51 | – | CC(C)C[C@H](NC(=O)[C@@H](NC(=O)[C@@H](N)CCC(=O)O)C(C)C)C(=O)N[C@@H](Cc1ccccc1)[C@@H](O)C(=O)Nc1cccc(C(=O)C(F)(F)F)c1 | – |
| 95 | 68 | CC(C)C[C@H](NC(=O)[C@@H](NC(=O)[C@@H](N)CNC(=O)c1nn[nH]n1)C(C)C)C(=O)N[C@@H](Cc1ccccc1)[C@@H](O)C(=O)Nc1cc(C(F)(F)F)cc(C(F)(F)F)c1 | – |
